Our source for the IC50 values is patent publication US10526336B2, “Fused heteroaryl derivatives as orexin receptor antagonists” (Merck Sharp & Dohme Corp., priority 2014, dated 2020).

Molecules are shown by their SMILES.

The IC50 is the midpoint of a concentration-inhibition curve.

In the experiment the target is human orexin-2 receptor (Homo sapiens (Human), UniProt O43614). The experiment in a line: FLIPR Ca2+ Flux Assay, orexin-2 receptor antagonism in CHO cells. Format: cell-based. Particulars: CHO cells expressing the human orexin-2 receptor; agonist 70 pM Ala-6,12 orexin-A; read-out: hOX2 FLIPR IC50. On the procedure: The utility of the compounds in accordance with the present invention as orexin receptor OX1R and/or OX2R antagonists may be readily determined without undue experimentation by methodology well known in the art, including the “FLIPR Ca^2+ Flux Assay” (Okumura et al., Biochem. Biophys. Res. Comm. 280:976-981, 2001). In a typical experiment the OX1 and OX2 receptor antagonistic activity of the compounds of the present invention was determined in accordance with the following experimental method. For intracellular calcium measurements, Chinese hamster ovary (CHO) cells expressing the rat orexin-1 receptor or the human orexin-2 receptor, are grown in Iscove's modified DMEM containing 2 mM L-glutamine, […], 1% hypoxanthine-thymidine supplement, 100 U/ml penicillin, 100 μg/ml streptomycin and 10% heat-inactivated fetal calf serum (FCS). The cells are seeded at 20,000 cells/well into Becton-Dickinson black 384-well clear bottom sterile plates coated with poly-D-lysine. All reagents are from GIBCO-Invitrogen Corp. The seeded plates are incubated overnight at 37° C. and 5% CO2. Ala-6,12 human orexin-A as the agonist is prepared as a 1 mM stock solution in 1% bovine serum albumin (BSA) and diluted in assay buffer (HBSS containing 20 mM HEPES, 0.1% BSA and 2.5 mM probenecid, pH7.4) for use in the assay at a final concentration of 70 pM. Test compounds are prepared as 10 mM stock solution in DMSO, then diluted in 384-well plates, first in DMSO, then assay buffer. On the day of the assay, cells are washed 3 times with 100 μl assay buffer and then incubated for 60 min (37° C., 5% CO2) in 60 μl assay buffer containing […] Fluo-4AM ester, 0.02% pluronic acid, and 1% BSA. The dye loading solution is then aspirated and cells are washed 3 times with 100 μl assay buffer. 30 μl of that same buffer is left in each well. Within the Fluorescent Imaging Plate Reader (FLIPR, Molecular Devices), test compounds are added to the plate in a volume of 25 μl, incubated for 5 min and finally 25 μl of agonist is added. Fluorescence is measured for each well at 1 second intervals for 5 minutes and the height of each fluorescence peak is compared to the height of the fluorescence peak induced by 70 pM Ala-6,12 orexin-A with buffer in place of antagonist. For each antagonist, IC50 value (the concentration of compound needed to inhibit 50% of the agonist response) is determined. Alternatively, compound potency can be assessed by a radioligand binding assay (described in Bergman et. al. Bioorg. Med. Chem. Lett. 2008, 18, 1425-1430) in which the inhibition constant (Ki) is determined in membranes prepared from CHO cells expressing either the OX1 or OX2 receptor. The intrinsic orexin receptor antagonist activity of a compound which may be used in the present invention may be determined by these assays.
Chain of human orexin-2 receptor (O43614 whole entry): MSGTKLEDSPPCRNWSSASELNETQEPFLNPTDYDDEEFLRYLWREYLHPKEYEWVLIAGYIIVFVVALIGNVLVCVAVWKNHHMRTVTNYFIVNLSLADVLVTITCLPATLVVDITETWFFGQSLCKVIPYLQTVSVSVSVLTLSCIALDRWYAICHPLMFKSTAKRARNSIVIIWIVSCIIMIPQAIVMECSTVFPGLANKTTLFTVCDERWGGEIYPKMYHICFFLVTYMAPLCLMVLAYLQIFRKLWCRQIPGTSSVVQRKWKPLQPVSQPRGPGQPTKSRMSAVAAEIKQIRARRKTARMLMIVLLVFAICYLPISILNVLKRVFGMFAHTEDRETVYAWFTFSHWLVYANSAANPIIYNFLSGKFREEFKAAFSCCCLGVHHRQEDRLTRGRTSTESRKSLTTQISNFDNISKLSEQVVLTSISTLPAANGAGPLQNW
A general note: A change in cytosolic calcium serves as a functional read-out for many receptors and channels.
As for `C[C@@H]1CC[C@@H](Oc2nccn3c(Cl)cnc23)CN1C(=O)c1ccccc1-n1nccn1` [Example 26, (2-(2H-1,2,3-triazol-2-yl)phenyl)((2R,5R)-5-((3-chloroimidazo[1,2-a]pyrazin-8-yl)oxy)-2-methylpiperidin-1-yl)methanone], the IC50 was 12.1 nM.

For `C[C@@H]1CC[C@@H](Oc2nccn3c(Cl)cnc23)CN1C(=O)c1ccccc1-n1ncnn1` [Example 27, (2-(2H-tetrazol-2-yl)phenyl) ((2R,5R)-5-((3-chloroimidazo[1,2-α]pyrazin-8-yl)oxy)-2-methylpiperidin-1-yl)methanone], the IC50 is 9.1 nM.

As for `C[C@@H]1CC[C@@H](Oc2nccn3c(Cl)cnc23)CN1C(=O)c1ccccc1C1(C#N)CC1` [Example 28, 1-(2-((2R,5R)-5-((3-chloroimidazo[1,2-α]pyrazin-8-yl)oxy)-2-methylpiperidine-1-carbonyl)phenyl) cyclopropanecarbonitrile], the IC50 was 9.5 nM.

As to `C[C@@H]1CC[C@@H](Oc2nccn3c(Cl)cnc23)CN1C(=O)c1ccsc1-n1nccn1` [Example 29, (2-(2H-1,2,3-triazol-2-yl)thiophen-3-yl)((2R,5R)-5-((3-chloroimidazo[1,2-α]pyrazin-8-yl)oxy)-2-methylpiperidin-1-yl)methanone], the IC50 was 14.3 nM.

Regarding `C[C@@H]1CC[C@@H](Nc2nccn3c(Cl)cnc23)CN1C(=O)c1ccccc1-n1nccn1` [Example 30, (2-(2H-1,2,3-triazol-2-yl)phenyl)((2R,5R)-5-((3-chloroimidazo[1,2-a]pyrazin-8-yl)amino)-2-methylpiperidin-1-yl)methanone], the half-maximal inhibitory concentration (IC50) was found to be 13.9 nM.

On to `C[C@@H]1CC[C@@H](Nc2nccn3c(Cl)cnc23)CN1C(=O)c1ccccc1-c1ncccn1` [Example 31, ((2R,5R)-5-((3-chloroimidazo[1,2-a]pyrazin-8-yl)amino)-2-methylpiperidin-1-yl)(2-(pyrimidin-2-yl)phenyl)methanone], for which the IC50 came out at 23.7 nM.

For the molecule `C[C@@H]1CC[C@@H](Oc2nccn3c(F)cnc23)CN1C(=O)c1ccccc1-n1nccn1` [Example 32, (2-(2H-1,2,3-triazol-2-yl)phenyl)((2R,5R)-5-((3-fluoroimidazo[1,2-a]pyrazin-8-yl)oxy)-2-methylpiperidin-1-yl)methanone], the IC50 came to 12.6 nM.

On to `C[C@@H]1CC[C@@H](Oc2nccn3c(Br)cnc23)CN1C(=O)c1ccccc1-n1nccn1` [Example 33, (2-(2H-1,2,3-triazol-2-yl)phenyl)((2R,5R)-5-((3-bromoimidazo[1,2-a]pyrazin-8-yl)oxy)-2-methylpiperidin-1-yl)methanone], for which the half-inhibitory concentration (IC50) was determined as 8.9 nM.

Regarding `Cc1cnc2c(O[C@@H]3CC[C@@H](C)N(C(=O)c4ccccc4-n4nccn4)C3)nccn12` [Example 34, (2-(2H-1,2,3-triazol-2-yl)phenyl)((2R,5R)-2-methyl-5-((3-methylimidazo[1,2-a]pyrazin-8-yl)oxy)piperidin-1-yl)methanone], the half-inhibitory concentration (IC50) was found to be 16.3 nM.

On to `C[C@@H]1CC[C@@H](Oc2nccn3c(C#N)cnc23)CN1C(=O)c1ccccc1-n1nccn1` [Example 35, 8-(((3R,6R)-1-(2-(2H-1,2,3-triazol-2-yl)benzoyl)-6-methylpiperidin-3-yl)oxy)imidazo[1,2-a]pyrazine-3-carbonitrile], for which the IC50 came out at 73.7 nM.

On to `C=Cc1cnc2c(O[C@@H]3CC[C@@H](C)N(C(=O)c4ccccc4-n4nccn4)C3)nccn12` [Example 36, (2-(2H-1,2,3-triazol-2-yl)phenyl)((2R,5R)-2-methyl-5-((3-vinylimidazo[1,2-a]pyrazin-8-yl)oxy)piperidin-1-yl)methanone], for which the IC50 came out at 21 nM.

With `CCc1cnc2c(O[C@@H]3CC[C@@H](C)N(C(=O)c4ccccc4-n4nccn4)C3)nccn12` [Example 37, (2-(2H-1,2,3-triazol-2-yl)phenyl)((2R,5R)-5-((3-ethylimidazo[1,2-a]pyrazin-8-yl)oxy)-2-methylpiperidin-1-yl)methanone], the IC50 is 29.2 nM.

Regarding `C[C@@H]1CC[C@@H](Oc2nccn3c(C(F)F)cnc23)CN1C(=O)c1ccccc1-n1nccn1` [Example 38, (2-(2H-1,2,3-triazol-2-yl)phenyl)((2R,5R)-5-((3-(difluoromethyl)imidazo[1,2-a]pyrazin-8-yl)oxy)-2-methylpiperidin-1-yl)methanone], the IC50 was found to be 17.6 nM.

As to `C[C@@H]1CC[C@@H](Oc2nccn3c(C(F)F)cnc23)CN1C(=O)c1ccccc1CS(C)(=O)=O` [Example 39, ((2R,5R)-5-((3-(difluoromethyl)imidazo[1,2-a]pyrazin-8-yl)oxy)-2-methylpiperidin-1-yl)(2-((methylsulfonyl)methyl)phenyl)methanone], the IC50 amounted to 62.6 nM.

In the case of `C[C@@H]1CC[C@@H](Oc2nccn3c(C(F)F)cnc23)CN1C(=O)c1ccsc1-n1nccn1` [Example 40, (2-(2H-1,2,3-triazol-2-yl)thiophen-3-yl)((2R,5R)-5-((3-(difluoromethyl)imidazo[1,2-α]pyrazin-8-yl)oxy)-2-methylpiperidin-1-yl)methanone], the IC50 was 10.5 nM.

As for `C[C@@H]1CC[C@@H](Oc2nccn3c(C(F)F)cnc23)CN1C(=O)c1cscc1-n1nccn1` [Example 41, (4-(2H-1,2,3-triazol-2-yl)thiophen-3-yl)((2R,5R)-5-((3-(difluoromethyl)imidazo[1,2-α]pyrazin-8-yl)oxy)-2-methylpiperidin-1-yl)methanone], the IC50 was determined as 45.7 nM.

In the case of `C[C@@H]1CC[C@@H](Oc2nccn3c(C(F)F)cnc23)CN1C(=O)c1ccccc1C1(C#N)CC1` [Example 42, 1-(2-((2R,5R)-5-((3-(difluoromethyl)imidazo[1,2-α]pyrazin-8-yl)oxy)-2-methylpiperidine-1-carbonyl)phenyl)cyclopropanecarbonitrile], the IC50 was determined as 5 nM.

With `C[C@@H]1CC[C@@H](Oc2nccn3c(C(F)F)cnc23)CN1C(=O)c1ccc(F)cc1-n1nccn1` [Example 43, ((2R,5R)-5-((3-(difluoromethyl)imidazo[1,2-α]pyrazin-8-yl)oxy)-2-methylpiperidin-1-yl)(4-fluoro-2-(2H-1,2,3-triazol-2-yl)phenyl)methanone], the IC50 worked out at 15.7 nM.

Regarding `C[C@@H]1CC[C@@H](Oc2nccn3c(C(F)F)cnc23)CN1C(=O)c1ccccc1-n1ncnn1` [Example 44, (2-(2H-tetrazol-2-yl)phenyl)((2R,5R)-5-((3-(difluoromethyl)imidazo[1,2-α]pyrazin-8-yl)oxy)-2-methylpiperidin-1-yl)methanone], the IC50 came to 9.6 nM.

Take `COCc1ccccc1C(=O)N1C[C@H](Oc2nccn3c(C(F)F)cnc23)CC[C@H]1C` [Example 45, ((2R,5R)-5-((3-(difluoromethyl)imidazo[1,2-α]pyrazin-8-yl)oxy)-2-methylpiperidin-1-yl)(2-(methoxymethyl)phenyl)methanone]: the IC50 was determined as 108 nM.

With `C[C@@H]1CC[C@@H](Oc2nccn3c(C(F)F)cnc23)CN1C(=O)c1nccnc1-n1cccn1` [Example 46, (3-(1H-pyrazol-1-yl)pyrazin-2-yl)((2R,5R)-5-((3-(difluoromethyl)imidazo[1,2-α]pyrazin-8-yl)oxy)-2-methylpiperidin-1-yl)methanone], the IC50 was found to be 61.9 nM.

As for `C[C@@H]1CC[C@@H](Oc2nccn3c(C(F)F)cnc23)CN1C(=O)c1nccnc1-c1ccccn1` [Example 47, ((2R,5R)-5-((3-(difluoromethyl)imidazo[1,2-α]pyrazin-8-yl)oxy)-2-methylpiperidin-1-yl)(3-(pyridin-2-yl)pyrazin-2-yl)methanone], the IC50 amounted to 64.9 nM.

For `COC(=O)c1ccccc1C(=O)N1C[C@H](Oc2nccn3c(C(F)F)cnc23)CC[C@H]1C` [Example 48, methyl 2-((2R,5R)-5-((3-(difluoromethyl)imidazo[1,2-α]pyrazin-8-yl)oxy)-2-methylpiperidine-1-carbonyl)benzoate], the IC50 came to 24.9 nM.

In the case of `C[C@@H]1CC[C@@H](Oc2nccn3c(C(F)F)cnc23)CN1C(=O)c1ncccc1-c1ccccc1` [Example 49, ((2R,5R)-5-((3-(difluoromethyl)imidazo[1,2-α]pyrazin-8-yl)oxy)-2-methylpiperidin-1-yl)(3-phenylpyridin-2-yl)methanone], the IC50 was 51.8 nM.
